Data from patent US11345745B2, “Peptide-hinge-free flexible antibody-like molecule” (BIOMOLECULAR HOLDINGS LLC, priority 2011, dated 2022).

Test system: anti-Aβ mAb (6E10)
Experiment: Surface plasmon resonance (SPR) binding to immobilized anti-Aβ monoclonal antibody 6E10
Conditions: 6E10 immobilized on the surface of the SPR chip
Description: SPR tests were carried out using a Biacore T100 instrument (Biacore AB, Uppsala, Sweden). A ligand, biotin-labeled 6E10 monoclonal antibody (Covance, Princeton, N.J.), was immobilized at a concentration of 10 mg/ml in PBS onto a CAP sensor chip, Series S, using a Biotin CAPture Kit (GE Healthcare, Piscataway, N.J.). The sensor chip was loaded with a streptavidin capture reagent and regenerated according to the manufacturer's instruction, including an additional regeneration step using 0.25 MNaOH in 30% acetonitrile. Binding of Aβ symmetroadhesins and Aβ peptides was carried out at 25° C. in 10 mM Hepes buffer, pH 7,4, 150 mM NaCl, 3 mM EDTA, and 0.005 vol % Tween-20. Data was evaluated using Biacore T100 Evaluation Software, version 2.0.3.
Accordingly, the present inventors characterized the binding of the Aβ symmetroadhesins of the present inventors to one of these antibodies (6E10) using surface plasmon resonance (SPR). The present inventors compared the binding of Aβ peptides containing the [sequence] sequence (SEQ ID No. 2) which were expected to bind to 6E10 in a one-handed manner.

Fc6: recombinant human IgG1 Fc protein beginning at 226CPPC core hinge, N-terminal cysteine, expressed in CHO cells
binding to immobilized 6E10 (observed or not): No binding
